This is an account of results in US11584747B2, “Substituted pyridopyrimidinonyl compounds useful as T cell activators” (BRISTOL-MYERS SQUIBB COMPANY, priority 2019, dated 2023).

Like-named read-outs stand apart in the source and are kept apart here.

Test [1] addresses human DGKζ (Homo sapiens (Human), UniProt Q13574). Nature of the test: DGKζ LIPGLO assay (extruded liposome substrate, ADP-Glo luminescence). In kind it is biochemical. Particulars: liposome assay; read-out: DGK zeta LIPGLO IC50. (ADP-Glo first removes unused ATP, then detects ADP through luciferase.)
Test [2] deals with human venous whole blood (IFN-γ). The test is described as follows: Human whole blood IFN-γ assay. In kind it is cell-based. Particulars: whole blood, normalized to 3 μM reference compound as 100% activation, read-out: IFN-γ Whole Blood Normalized EC50. As to the method:
Human venous whole blood (22.5 μL per well), obtained from healthy donors, was pre-treated with compounds for one hour at 37° C. in a humidified 95% air/5% CO2 incubator. The blood was stimulated with 2.5 μL anti-human CD3 and anti-CD28 mAb at a final concentration of 1 μg/mL each for 24 hours at 37° C. IFN-γ in the supernatants was measured using AlphLISA kit (Cat #AL217).

Test [3] addresses human DGKα (Homo sapiens (Human), UniProt P23743). The test is described as follows: DGKα LIPGLO assay (extruded liposome substrate, ADP-Glo luminescence). Particulars: liposome assay; read-out: DGK alpha LIPGLO IC50. In kind it is biochemical.

Sequence of human DGKζ (Q13574 other isoform, or with tags, fused parts or gaps): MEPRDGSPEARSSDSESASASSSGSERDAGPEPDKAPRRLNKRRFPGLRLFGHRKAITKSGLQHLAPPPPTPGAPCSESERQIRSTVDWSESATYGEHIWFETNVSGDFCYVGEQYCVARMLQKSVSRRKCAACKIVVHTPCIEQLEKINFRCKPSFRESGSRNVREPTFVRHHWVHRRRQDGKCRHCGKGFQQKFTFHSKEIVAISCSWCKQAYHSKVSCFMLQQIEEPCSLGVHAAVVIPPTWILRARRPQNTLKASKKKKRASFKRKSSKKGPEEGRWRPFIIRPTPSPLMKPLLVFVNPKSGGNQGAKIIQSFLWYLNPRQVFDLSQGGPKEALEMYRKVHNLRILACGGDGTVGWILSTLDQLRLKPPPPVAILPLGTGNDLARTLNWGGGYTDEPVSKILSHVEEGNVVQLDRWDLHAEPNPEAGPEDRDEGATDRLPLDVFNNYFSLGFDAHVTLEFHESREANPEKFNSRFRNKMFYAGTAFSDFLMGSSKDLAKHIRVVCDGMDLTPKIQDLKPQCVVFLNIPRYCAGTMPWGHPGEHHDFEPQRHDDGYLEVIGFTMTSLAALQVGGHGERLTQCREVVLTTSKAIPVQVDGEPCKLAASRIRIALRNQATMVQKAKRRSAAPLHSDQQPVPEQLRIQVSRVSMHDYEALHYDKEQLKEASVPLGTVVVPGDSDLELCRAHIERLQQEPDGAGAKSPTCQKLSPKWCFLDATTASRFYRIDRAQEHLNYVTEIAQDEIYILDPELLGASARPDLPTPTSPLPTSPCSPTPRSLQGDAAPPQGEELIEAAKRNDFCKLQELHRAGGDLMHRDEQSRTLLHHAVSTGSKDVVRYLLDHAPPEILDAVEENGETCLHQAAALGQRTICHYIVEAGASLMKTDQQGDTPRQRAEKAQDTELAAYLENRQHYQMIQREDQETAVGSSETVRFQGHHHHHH
Sequence of human DGKα (P23743 whole entry, looked up): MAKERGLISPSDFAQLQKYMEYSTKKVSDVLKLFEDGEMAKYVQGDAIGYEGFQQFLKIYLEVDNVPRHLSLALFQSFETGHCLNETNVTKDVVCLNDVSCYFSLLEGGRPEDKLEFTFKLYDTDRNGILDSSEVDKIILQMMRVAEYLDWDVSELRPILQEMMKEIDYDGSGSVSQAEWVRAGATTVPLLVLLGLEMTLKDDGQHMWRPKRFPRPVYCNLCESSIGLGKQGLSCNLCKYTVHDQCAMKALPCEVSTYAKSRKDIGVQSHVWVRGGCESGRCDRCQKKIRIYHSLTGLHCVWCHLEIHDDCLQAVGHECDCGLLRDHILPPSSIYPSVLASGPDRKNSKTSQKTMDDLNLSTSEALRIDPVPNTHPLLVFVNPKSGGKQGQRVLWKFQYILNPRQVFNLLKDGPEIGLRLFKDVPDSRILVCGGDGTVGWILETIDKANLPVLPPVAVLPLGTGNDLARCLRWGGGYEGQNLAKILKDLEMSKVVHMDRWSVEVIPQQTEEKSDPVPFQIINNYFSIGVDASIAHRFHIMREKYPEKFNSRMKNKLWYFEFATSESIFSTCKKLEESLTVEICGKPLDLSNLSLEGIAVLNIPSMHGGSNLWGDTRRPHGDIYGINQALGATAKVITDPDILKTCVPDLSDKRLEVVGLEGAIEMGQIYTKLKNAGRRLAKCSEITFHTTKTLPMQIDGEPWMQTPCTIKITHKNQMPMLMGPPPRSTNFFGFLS

In general, IC50 refers to the concentration needed to halve the response being measured. As a reminder, the EC50 is the concentration needed to bring the measured effect to its halfway point. With `C[C@@H]1CN(c2nc(=O)n(C)c3ccc(C#N)nc23)[C@@H](C)CN1C(c1ccc(F)cc1)c1nc(C2CC2)cs1` (single isomer, unassigned) [Example 158], the IC50 in test [1] is 570 nM; in test [3], 660 nM. Further, the EC50 in test [2] is 1580 nM.
Taken in the same sequence, the figures for `C[C@@H]1CN(c2nc(=O)n(C)c3ccc(C#N)nc23)[C@@H](C)CN1C(c1ccc(F)cc1)c1nc(C2CC2)cs1` (single isomer, unassigned) [Example 159] were 38 nM, 94 nM and 250 nM.
On to `CC(c1ccc(OC(F)(F)F)c(F)c1)N1C[C@H](C)N(c2nc(=O)n(C)c3ccc(C#N)nc23)C[C@H]1C` (single isomer, unassigned) [Example 161], for which the IC50 in test [1] amounted to 1210 nM; in test [3], 2100 nM. In addition, the EC50 in test [2] is 4010 nM.
Taken in the same sequence, the figures for `C[C@@H]1CN(c2nc(=O)n(C)c3ccc(C#N)nc23)[C@@H](C)CN1C(c1ccc(F)cc1)c1ccon1` (single isomer, unassigned) [Example 162] were 1150 nM, 56 nM and 1850 nM.
Take `C[C@@H]1CN(c2nc(=O)n(C)c3ccc(C#N)nc23)[C@@H](C)CN1C(c1ccc(OC(F)(F)F)cc1)c1cc(C2CC2)on1` (single isomer, unassigned) [Example 164]: the IC50 turned out to be 340 nM in test [1] and 120 nM in test [3]. Further, in test [2] (Homo sapiens), the EC50 was 650 nM.
As for `C[C@@H]1CN(c2nc(=O)n(C)c3ccc(C#N)nc23)[C@@H](C)CN1C(c1ccc(OC(F)(F)F)cc1)c1cc(C2CC2)on1` (single isomer, unassigned) [Example 165], the IC50 in test [1] is 370 nM; in test [3] it was 380 nM. In addition, in test [2], the EC50 worked out at 630 nM.
On the same counts, the results for `CC(c1ccc2c(c1)OC(F)(F)O2)N1C[C@H](C)N(c2nc(=O)n(C)c3ccc(C#N)nc23)C[C@H]1C` (single isomer, unassigned) [Example 166] are 330 nM, 5390 nM and 500 nM.
As to `CC(c1ccc2c(c1)OC(F)(F)O2)N1C[C@H](C)N(c2nc(=O)n(C)c3ccc(C#N)nc23)C[C@H]1C` (single isomer, unassigned) [Example 167], the IC50 in test [1] turned out to be 2380 nM; in test [3], 17800 nM. Further, the EC50 in test [2] was 3850 nM.
Taken in the same sequence, the figures for `CC(c1ccc(C2CC2)cc1F)N1C[C@H](C)N(c2nc(=O)n(C)c3ccc(C#N)nc23)C[C@H]1C` (single isomer, unassigned) [Example 169] were 2180 nM, 4620 nM and 1330 nM.
On the same counts, the results for `C[C@@H]1CN(c2nc(=O)n(C)c3ccc(C#N)nc23)[C@@H](C)CN1C(c1ccc(F)cc1)c1csc(C(F)(F)F)n1` (single isomer, unassigned) [Example 170] are 330 nM, 1610 nM and 96 nM.
On the same counts, the results for `C[C@@H]1CN(c2nc(=O)n(C)c3ccc(C#N)nc23)[C@@H](C)CN1C(c1ccc(F)cc1)c1csc(C(F)(F)F)n1` (single isomer, unassigned) [Example 171] are 560 nM, 1560 nM and 220 nM.
As for `COC[C@@H]1CN(c2nc(=O)n(C)c3ccc(C#N)nc23)[C@@H](C)CN1C(C)c1ccc(C(F)(F)F)cc1` (single isomer, unassigned) [Example 174], the IC50 in test [1] was found to be 140 nM; in test [3], 590 nM. Besides, the EC50 in test [2] was determined as 140 nM.
As for `COC[C@@H]1CN(c2nc(=O)n(C)c3ccc(C#N)nc23)[C@@H](C)CN1C(C)c1ccc(C(F)(F)F)cc1` (single isomer, unassigned) [Example 175], the figures for the IC50 in test [1] and in test [3] were 830 nM and 980 nM, respectively. In addition, in test [2], the EC50 turned out to be 1690 nM.
Take `COC[C@@H]1CN(c2nc(=O)n(C)c3ccc(C#N)nc23)[C@@H](C)CN1C(c1ccc(F)cc1)c1ccc(C(F)(F)F)cn1` (single isomer, unassigned) [Example 178]: the figures for the IC50 in test [1] and in test [3] were 130 nM and 290 nM, respectively. For the same compound, the concentration for a half-maximal effect (EC50) in test [2] (Homo sapiens) came out at 91 nM.
With `COC[C@@H]1CN(c2nc(=O)n(C)c3ccc(C#N)nc23)[C@@H](C)CN1C(c1ccc(F)cc1)c1ccc(C(F)(F)F)cn1` (single isomer, unassigned) [Example 179], the IC50 in test [1] was determined as 22 nM; in test [3] it was 81 nM. For the same compound, the EC50 in test [2] turned out to be 55 nM.
Take `C[C@H]1CN(C(c2ccc(F)cc2)c2ccc(C(F)(F)F)cn2)[C@H](CO)CN1c1nc(=O)n(C)c2ccc(C#N)nc12` (single isomer, unassigned) [Example 181]: the IC50 in test [1] is 12400 nM; in test [3], 4920 nM. In addition, the EC50 in test [2] is 730 nM.
Taken in the same sequence, the figures for `C[C@H]1CN(C(c2ccc(F)cc2)c2ccc(C(F)(F)F)cn2)[C@H](CO)CN1c1nc(=O)n(C)c2ccc(C#N)nc12` (single isomer, unassigned) [Example 182] were 2030 nM, 430 nM and 2530 nM.
On the same counts, the results for `CC(c1ccc(OC(F)(F)F)cc1)N1C[C@H](C)N(c2nc(=O)n(C)c3ccc(C#N)nc23)C[C@H]1CO` (single isomer, unassigned) [Example 184] are 45000 nM, 2660 nM and 20000 nM.
Regarding `[2H]C([2H])([2H])Oc1ccc(C(C)N2C[C@H](CC)N(c3nc(=O)n(C)c4ccc(C#N)nc34)C[C@H]2CC)cc1` (single isomer, unassigned) [Example 190], the IC50 in test [1] was 17 nM; in test [3], 29 nM. Besides, the EC50 in test [2] turned out to be 9 nM.
Regarding `CC[C@@H]1CN(c2nc(=O)n(C)c3ccc(C#N)nc23)[C@@H](CC)CN1Cc1ccc2c(c1)OC(F)(F)O2` [Example 13, 4-((2S,5R)-4-((2,2-difluorobenzo[d][1,3]dioxol-5-yl)methyl)-2,5-diethylpiperazin-1-yl)-1-methyl-2-oxo-1,2-dihydropyrido[3,2-d]pyrimidine-6-carbonitrile], the IC50 is 230 nM in test [1] and 700 nM in test [3]. In addition, the EC50 in test [2] (Homo sapiens) stood at 2120 nM.
Taken in the same sequence, the figures for `CC[C@@H]1CN(c2nc(=O)n(C)c3ccc(C#N)nc23)[C@@H](CC)CN1Cc1ccc(OC(F)(F)F)cc1` [Example 22, 4-((2S,5R)-2,5-diethyl-4-(4-(trifluoromethoxy)benzyl)piperazin-1-yl)-1-methyl-2-oxo-1,2-dihydropyrido[3,2-d]pyrimidine-6-carbonitrile] were 180 nM, 2 nM and 380 nM.
On the same counts, the results for `CC[C@@H]1CN(c2nc(=O)n(C)c3ccc(C#N)nc23)[C@@H](CC)CN1Cc1ccc(OC(F)(F)F)cc1F` [Example 27, 4-((2S,5R)-2,5-diethyl-4-(2-fluoro-4-(trifluoromethoxy)benzyl)piperazin-1-yl)-1-methyl-2-oxo-1,2-dihydropyrido[3,2-d]pyrimidine-6-carbonitrile] are 230 nM, 2 nM and 620 nM.
Taken in the same sequence, the figures for `CC[C@@H]1CN(c2nc(=O)n(C)c3ccc(C#N)nc23)[C@@H](C)CN1Cc1ccc(OC(F)(F)F)cc1F` [Example 62, 4-((2S,5R)-5-ethyl-4-(2-fluoro-4-(trifluoromethoxy)benzyl)-2-methylpiperazin-1-yl)-1-methyl-2-oxo-1,2-dihydropyrido[3,2-d]pyrimidine-6-carbonitrile] were 220 nM, 58 nM and 200 nM.
